Results as given in PubChem BioAssay AID1918938 (Molecular Pharmacology Branch, DTP, NCI, 2023).

System: 556581-035-R-J1-PDC complex spheroid viability
Test: Anticancer human tumor 556581-035-R-J1-PDC patient-derived ovarian carcinoma cell line growth inhibition
Conditions: for IC50: curve of first compound; for viability, T/C: stronger effect = lower value
In short: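 Complex spheroids of tumor cells with HUVEC and human MSCs, exposed to iadademstat combined with other agents. Each agent tested in half-log steps from near clinical Cmax (else 10 microM top), DMSO ≤0.25%.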

[1] = second compound 0.1 µM, first compound 0.000316 µM
[2] = second compound 0.1 µM, first compound 0.001 µM
[3] = second compound 0.1 µM, first compound 0.00316 µM
[4] = second compound 0.1 µM, first compound 0.01 µM
[5] = second compound 0.1 µM, first compound 0.0316 µM
[6] = second compound 0.1 µM, first compound 0.1 µM
[7] = second compound 0.316 µM, first compound 0.000316 µM
[8] = second compound 0.316 µM, first compound 0.001 µM
[9] = second compound 0.316 µM, first compound 0.00316 µM
[10] = second compound 0.316 µM, first compound 0.01 µM
[11] = second compound 0.316 µM, first compound 0.0316 µM
[12] = second compound 0.316 µM, first compound 0.1 µM
[13] = second compound 1 µM, first compound 0.000316 µM
[14] = second compound 1 µM, first compound 0.001 µM
[15] = second compound 1 µM, first compound 0.00316 µM
[16] = second compound 1 µM, first compound 0.01 µM
[17] = second compound 1 µM, first compound 0.0316 µM
[18] = second compound 1 µM, first compound 0.1 µM
[19] = second compound 3.16 µM, first compound 0.000316 µM
[20] = second compound 3.16 µM, first compound 0.001 µM
[21] = second compound 3.16 µM, first compound 0.00316 µM
[22] = second compound 3.16 µM, first compound 0.01 µM
[23] = second compound 3.16 µM, first compound 0.0316 µM
[24] = second compound 3.16 µM, first compound 0.1 µM
[25] = second compound 10 µM, first compound 0.000316 µM
[26] = second compound 10 µM, first compound 0.001 µM
[27] = second compound 10 µM, first compound 0.00316 µM
[28] = second compound 10 µM, first compound 0.01 µM
[29] = second compound 10 µM, first compound 0.0316 µM
[30] = second compound 10 µM, first compound 0.1 µM
[31] = second compound 0.1 µM, first compound 0.00949 µM
[32] = second compound 0.1 µM, first compound 0.03 µM
[33] = second compound 0.1 µM, first compound 0.0949 µM
[34] = second compound 0.1 µM, first compound 0.3 µM
[35] = second compound 0.1 µM, first compound 0.949 µM
[36] = second compound 0.1 µM, first compound 3 µM
[37] = second compound 0.316 µM, first compound 0.00949 µM
[38] = second compound 0.316 µM, first compound 0.03 µM
[39] = second compound 0.316 µM, first compound 0.0949 µM
[40] = second compound 0.316 µM, first compound 0.3 µM
[41] = second compound 0.316 µM, first compound 0.949 µM
[42] = second compound 0.316 µM, first compound 3 µM
[43] = second compound 1 µM, first compound 0.00949 µM
[44] = second compound 1 µM, first compound 0.03 µM
[45] = second compound 1 µM, first compound 0.0949 µM
[46] = second compound 1 µM, first compound 0.3 µM
[47] = second compound 1 µM, first compound 0.949 µM
[48] = second compound 1 µM, first compound 3 µM
[49] = second compound 3.16 µM, first compound 0.00949 µM
[50] = second compound 3.16 µM, first compound 0.03 µM
[51] = second compound 3.16 µM, first compound 0.0949 µM
[52] = second compound 3.16 µM, first compound 0.3 µM
[53] = second compound 3.16 µM, first compound 0.949 µM
[54] = second compound 3.16 µM, first compound 3 µM
[55] = second compound 10 µM, first compound 0.00949 µM
[56] = second compound 10 µM, first compound 0.03 µM
[57] = second compound 10 µM, first compound 0.0949 µM
[58] = second compound 10 µM, first compound 0.3 µM
[59] = second compound 10 µM, first compound 0.949 µM
[60] = second compound 10 µM, first compound 3 µM
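Note: spheroids exposed to agents for seven days.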
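Throughout, for viability, T/C: 100% = DMSO vehicle control wells.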

CC(C)CC(NC(=O)CNC(=O)c1cc(Cl)ccc1Cl)B1OC(=O)CC(CC(=O)O)(C(=O)O)O1 (stereo not given) + NC1CCC(NC2CC2c2ccccc2)CC1 was tested, and the IC50 (second compound 0.1 µM) was 4.01 nM, the IC50 (second compound 0.316 µM) was 4.35 nM and the IC50 (second compound 1 µM) was 4.48 nM. It also gave an IC50 (second compound 3.16 µM) of 4.6 nM, an IC50 (second compound 10 µM) of 3.25 nM and a viability, T/C [1] of 90.7%. For the same compound, the viability, T/C [2] was 99.5%, the viability, T/C [3] was 62.3% and the viability, T/C [4] was 3.38%. It also gave a viability, T/C [5] of 0.24%, a viability, T/C [6] of 0.3% and a viability, T/C [7] of 95.5%. For the same compound, the viability, T/C [8] was 93.4%, the viability, T/C [9] was 67.6% and the viability, T/C [10] was 4.37%. It also gave a viability, T/C [11] of 0.84%, a viability, T/C [12] of 0.84% and a viability, T/C [13] of 86.2%. For the same compound, the viability, T/C [14] was 88%, the viability, T/C [15] was 69.7% and the viability, T/C [16] was 4.47%. It also gave a viability, T/C [17] of 0.33%, a viability, T/C [18] of 0.17% and a viability, T/C [19] of 91.3%. The viability, T/C [20] was 86%, the viability, T/C [21] was 72.4% and the viability, T/C [22] was 3.59%. It also gave a viability, T/C [23] of 0.33%, a viability, T/C [24] of 0.6% and a viability, T/C [25] of 72.3%. It also gave a viability, T/C [26] of 90.1%, a viability, T/C [27] of 51.2% and a viability, T/C [28] of 2.53%. For the same compound, the viability, T/C [29] was 0.48% and the viability, T/C [30] was 0.7%.

Work on COc1cc(Nc2ncc3c(n2)-c2ccc(Cl)cc2C(c2c(F)cccc2OC)=NC3)ccc1C(=O)O + NC1CCC(NC2CC2c2ccccc2)CC1 yielded an IC50 (second compound 0.1 µM) of 360 nM, an IC50 (second compound 0.316 µM) of 307 nM and an IC50 (second compound 1 µM) of 253 nM. The IC50 (second compound 3.16 µM) was 213 nM, the IC50 (second compound 10 µM) was 143 nM and the viability, T/C [3] was 67.5%. For the same compound, the viability, T/C [4] was 59.8%, the viability, T/C [5] was 58.4% and the viability, T/C [6] was 56.1%. The viability, T/C (second compound 0.1 µM, first compound 0.316 µM) was 54.9%, the viability, T/C (second compound 0.1 µM, first compound 1 µM) was 38.6% and the viability, T/C [9] was 65.1%. For the same compound, the viability, T/C [10] was 67.8%, the viability, T/C [11] was 63.9% and the viability, T/C [12] was 55%. For the same compound, the viability, T/C (second compound 0.316 µM, first compound 0.316 µM) was 50.1%, the viability, T/C (second compound 0.316 µM, first compound 1 µM) was 39.3% and the viability, T/C [15] was 62.3%. For the same compound, the viability, T/C [16] was 60.6%, the viability, T/C [17] was 57% and the viability, T/C [18] was 57.2%. It also gave a viability, T/C (second compound 1 µM, first compound 0.316 µM) of 46.9%, a viability, T/C (second compound 1 µM, first compound 1 µM) of 41.4% and a viability, T/C [21] of 66.5%. It also gave a viability, T/C [22] of 66.4%, a viability, T/C [23] of 61.4% and a viability, T/C [24] of 49%. It also gave a viability, T/C (second compound 3.16 µM, first compound 0.316 µM) of 53%, a viability, T/C (second compound 3.16 µM, first compound 1 µM) of 35.3% and a viability, T/C [27] of 58.6%. For the same compound, the viability, T/C [28] was 54.6%, the viability, T/C [29] was 58.5% and the viability, T/C [30] was 50.3%. It also gave a viability, T/C (second compound 10 µM, first compound 0.316 µM) of 46% and a viability, T/C (second compound 10 µM, first compound 1 µM) of 36.8%.

Cn1ncnc1C1c2n[nH]c(=O)c3cc(F)cc(c23)NC1c1ccc(F)cc1 (stereo not given) + NC1CCC(NC2CC2c2ccccc2)CC1 was tested, and the IC50 (second compound 0.1 µM) was > 100 nM, the IC50 (second compound 0.316 µM) was > 100 nM and the IC50 (second compound 1 µM) was > 100 nM. The IC50 (second compound 3.16 µM) was > 100 nM, the IC50 (second compound 10 µM) was > 100 nM and the viability, T/C [1] was 97%. For the same compound, the viability, T/C [2] was 105%, the viability, T/C [3] was 92.3% and the viability, T/C [4] was 91.2%. It also gave a viability, T/C [5] of 94%, a viability, T/C [6] of 85.4% and a viability, T/C [7] of 100%. For the same compound, the viability, T/C [8] was 94.7%, the viability, T/C [9] was 99.6% and the viability, T/C [10] was 91.6%. The viability, T/C [11] was 87.4%, the viability, T/C [12] was 91.9% and the viability, T/C [13] was 91%. The viability, T/C [14] was 92.2%, the viability, T/C [15] was 94.1% and the viability, T/C [16] was 101%. The viability, T/C [17] was 80.6%, the viability, T/C [18] was 92.1% and the viability, T/C [19] was 87.1%. The viability, T/C [20] was 87.2%, the viability, T/C [21] was 89.3% and the viability, T/C [22] was 79.5%. It also gave a viability, T/C [23] of 84.9%, a viability, T/C [24] of 80.8% and a viability, T/C [25] of 73.9%. For the same compound, the viability, T/C [26] was 77.8%, the viability, T/C [27] was 76.1% and the viability, T/C [28] was 80.8%. It also gave a viability, T/C [29] of 73.5% and a viability, T/C [30] of 71.5%.

For NS(=O)(=O)OCC1CC(n2ccc3c(NC4CCc5ccccc54)ncnc32)CC1O (stereo not given) + NC1CCC(NC2CC2c2ccccc2)CC1, the IC50 (second compound 0.1 µM) was > 3000 nM, the IC50 (second compound 0.316 µM) was > 3000 nM and the IC50 (second compound 1 µM) was 2370 nM. For the same compound, the IC50 (second compound 3.16 µM) was 1500 nM, the IC50 (second compound 10 µM) was 545 nM and the viability, T/C [31] was 117%. It also gave a viability, T/C [32] of 122%, a viability, T/C [33] of 124% and a viability, T/C [34] of 91.3%. For the same compound, the viability, T/C [35] was 86.6%, the viability, T/C [36] was 58.4% and the viability, T/C [37] was 119%. It also gave a viability, T/C [38] of 112%, a viability, T/C [39] of 123% and a viability, T/C [40] of 99.8%. It also gave a viability, T/C [41] of 85.7%, a viability, T/C [42] of 50.4% and a viability, T/C [43] of 99%. It also gave a viability, T/C [44] of 115%, a viability, T/C [45] of 121% and a viability, T/C [46] of 92.2%. It also gave a viability, T/C [47] of 74.3%, a viability, T/C [48] of 43.7% and a viability, T/C [49] of 103%. It also gave a viability, T/C [50] of 106%, a viability, T/C [51] of 110% and a viability, T/C [52] of 84.8%. For the same compound, the viability, T/C [53] was 65.9%, the viability, T/C [54] was 28.8% and the viability, T/C [55] was 86.7%. The viability, T/C [56] was 86.1%, the viability, T/C [57] was 83.4% and the viability, T/C [58] was 62.1%. For the same compound, the viability, T/C [59] was 37.9% and the viability, T/C [60] was 15.2%.

O=C(C=Cc1cccc(S(=O)(=O)Nc2ccccc2)c1)NO + NC1CCC(NC2CC2c2ccccc2)CC1 was tested, and the IC50 (second compound 0.1 µM) was 108 nM, the IC50 (second compound 0.316 µM) was 87 nM and the IC50 (second compound 1 µM) was 76.3 nM. The IC50 (second compound 3.16 µM) was 92.8 nM, the IC50 (second compound 10 µM) was 39.6 nM and the viability, T/C [31] was 85.6%. For the same compound, the viability, T/C [32] was 78.4%, the viability, T/C [33] was 51.1% and the viability, T/C [34] was 26.1%. It also gave a viability, T/C [35] of 1.81%, a viability, T/C [36] of 0.24% and a viability, T/C [37] of 87.7%. It also gave a viability, T/C [38] of 74.3%, a viability, T/C [39] of 42.9% and a viability, T/C [40] of 31.7%. For the same compound, the viability, T/C [41] was 3.05%, the viability, T/C [42] was 0.34% and the viability, T/C [43] was 97.2%. For the same compound, the viability, T/C [44] was 65.7%, the viability, T/C [45] was 50.4% and the viability, T/C [46] was 24.6%. The viability, T/C [47] was 2.56%, the viability, T/C [48] was 0.21% and the viability, T/C [49] was 77.9%. For the same compound, the viability, T/C [50] was 73.1%, the viability, T/C [51] was 47.9% and the viability, T/C [52] was 22%. It also gave a viability, T/C [53] of 2.44%, a viability, T/C [54] of 0.16% and a viability, T/C [55] of 74.2%. For the same compound, the viability, T/C [56] was 51.7%, the viability, T/C [57] was 37.6% and the viability, T/C [58] was 23%. The viability, T/C [59] was 1.28% and the viability, T/C [60] was 0.28%.
